We go through 18 compounds from PubChem BioAssay AID256 (DTP/NCI, 2004).

The assay deals with CD2F1 mice, L1210 leukemia ip, survival T/C. Put plainly: NCI In Vivo Anticancer Drug Screen. Data for tumor model L1210 Leukemia (intraperitoneal) in CD2F1 (CDF1) mice. The note with it: higher = longer survival. A digest of the protocol:
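Transplantable tumor in mice; compound-treated vs vehicle-treated groups. Read-out = treated/control ratio of the measured endpoint.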

[1] abbreviates: endpoint: mean survival time, dose: 100.0 mg/kg/injection, schedule: Q04DX003 (ip), vehicle: saline with Tween-80.
Setting [2] is: endpoint: mean survival time, dose: 200.0 mg/kg/injection, schedule: Q04DX003 (ip), vehicle: saline with Tween-80.
Where [3] appears, read: endpoint: mean survival time, dose: 400.0 mg/kg/injection, schedule: Q04DX003 (ip), vehicle: saline with Tween-80.
[4] abbreviates: endpoint: mean survival time, dose: 100.0 mg/kg/injection, schedule: Q04DX003 (ip), vehicle: saline.
Setting [5] is: endpoint: mean survival time, dose: 200.0 mg/kg/injection, schedule: Q04DX003 (ip), vehicle: saline.
Where [6] appears, read: endpoint: mean survival time, dose: 400.0 mg/kg/injection, schedule: Q04DX003 (ip), vehicle: saline.
Where [7] appears, read: endpoint: mean survival time, dose: 100.0 mg/kg/injection, schedule: Q01DX009 (ip), vehicle: other.
Setting [8] is: endpoint: mean survival time, dose: 200.0 mg/kg/injection, schedule: Q01DX009 (ip), vehicle: other.

“And” between values parts separate entries of the source, which are not always exact repeats. Equal values may be shown once. Toxic doses and inconclusive results are not listed.

Regarding `Nc1ccc(Cn2ccc3c4c(N)nc(N)nc4ccc32)cc1`, the T/C is 101 % of control (endpoint: mean survival time, dose: 1.25 mg/kg/injection, schedule: Q01DX005 (ip), vehicle: saline with Tween-80); 101 % of control and 102 % of control and 108 % of control (endpoint: mean survival time, dose: 1.25 mg/kg/injection, schedule: Q01DX009 (ip), vehicle: saline with Tween-80); 111 % of control (endpoint: mean survival time, dose: 2.5 mg/kg/injection, schedule: Q01DX005 (ip), vehicle: saline with Tween-80); 110 % of control (endpoint: mean survival time, dose: 5.0 mg/kg/injection, schedule: Q01DX005 (ip), vehicle: saline with Tween-80); 123 % of control (endpoint: mean survival time, dose: 10.0 mg/kg/injection, schedule: Q01DX005 (ip), vehicle: saline with Tween-80); 106 % of control (endpoint: mean survival time, dose: 20.0 mg/kg/injection, schedule: Q01DX005 (ip), vehicle: saline with Tween-80). Further, the T/C is 117 % of control (endpoint: mean survival time, dose: 30.0 mg/kg/injection, schedule: Q01DX005 (ip), vehicle: saline with Tween-80); 103 % of control and 108 % of control (endpoint: median survival time, dose: 1.25 mg/kg/injection, schedule: Q01DX009 (ip), vehicle: saline with Tween-80); 118 % of control and 103 % of control (endpoint: median survival time, dose: 2.5 mg/kg/injection, schedule: Q01DX009 (ip), vehicle: saline with Tween-80); 124 % of control and 103 % of control (endpoint: median survival time, dose: 5.0 mg/kg/injection, schedule: Q01DX009 (ip), vehicle: saline with Tween-80); 113 % of control (endpoint: median survival time, dose: 10.0 mg/kg/injection, schedule: Q01DX009 (ip), vehicle: saline with Tween-80); 152 % of control (endpoint: median survival time, dose: 20.0 mg/kg/injection, schedule: Q01DX009 (ip), vehicle: saline with Tween-80).
Consider `CCCCCC(=O)CCCC`, for which the T/C (endpoint: mean survival time, dose: 50.0 mg/kg/injection, schedule: Q01DX009 (ip), vehicle: saline with Tween-80) was 109 % of control; the T/C (endpoint: mean survival time, dose: 100.0 mg/kg/injection, schedule: Q01DX009 (ip), vehicle: saline with Tween-80) was 102 % of control; the T/C (endpoint: mean survival time, dose: 200.0 mg/kg/injection, schedule: Q01DX009 (ip), vehicle: saline with Tween-80) was 105 % of control.
Turning to `CCCc1cccc[n+]1CC(=O)c1ccccc1`, the T/C runs as follows: (endpoint: mean survival time, dose: 6.25 mg/kg/injection, schedule: Q04DX003 (ip), vehicle: saline) 106 % of control; (endpoint: mean survival time, dose: 12.5 mg/kg/injection, schedule: Q04DX003 (ip), vehicle: saline) 98 % of control; (endpoint: mean survival time, dose: 25.0 mg/kg/injection, schedule: Q04DX003 (ip), vehicle: saline) 98 % of control.
`O=C(O)Cc1ccncc1`: the T/C by setting is: under setting [1], 97 % of control; under setting [2], 100 % of control; under setting [3], 97 % of control.
For `CNC(=O)OCc1c(COC(=O)NC)c(-c2ccc(Cl)c(Cl)c2)n2c1CCC2`, the T/C (endpoint: mean survival time, dose: 12.5 mg/kg/injection, schedule: Q01DX009 (ip), vehicle: Klucel (hydroxypropylcellulose) (HPC)) was 109 % of control; the T/C (endpoint: mean survival time, dose: 25.0 mg/kg/injection, schedule: Q01DX009 (ip), vehicle: Klucel (hydroxypropylcellulose) (HPC)) is 110 % of control; the T/C (endpoint: mean survival time, dose: 50.0 mg/kg/injection, schedule: Q01DX009 (ip), vehicle: Klucel (hydroxypropylcellulose) (HPC)) is 107 % of control; the T/C (endpoint: mean survival time, dose: 100.0 mg/kg/injection, schedule: Q01DX009 (ip), vehicle: Klucel (hydroxypropylcellulose) (HPC)) was 105 % of control.
Take `O=C1C(=O)C(Br)=C(Br)C(Br)=C1Br`: the T/C is, setting by setting: under setting [1], 91 % of control; under setting [2], 91 % of control.
On to `CC(C)(CCC#N)/C(=N\Nc1ccc([N+](=O)[O-])cc1[N+](=O)[O-])c1ccccc1`, for which the T/C is 90 % of control (endpoint: mean survival time, dose: 75.0 mg/kg/injection, schedule: Q04DX002 (ip), vehicle: saline with Tween-80); 102 % of control (endpoint: mean survival time, dose: 150.0 mg/kg/injection, schedule: Q04DX002 (ip), vehicle: saline with Tween-80); 94 % of control (endpoint: mean survival time, dose: 300.0 mg/kg/injection, schedule: Q04DX002 (ip), vehicle: saline with Tween-80).
As for `CC(C)(C)c1ccc(O)cc1`, the T/C runs as follows: under setting [1], 94 % of control; under setting [2], 95 % of control; under setting [3], 88 % of control.
Turning to `CCCCCCCCCCSCC`, the T/C was 101 % of control (endpoint: mean survival time, dose: 100.0 mg/kg/injection, schedule: Q01DX009 (ip), vehicle: saline); 103 % of control under setting [4]; 104 % of control (endpoint: mean survival time, dose: 200.0 mg/kg/injection, schedule: Q01DX009 (ip), vehicle: saline); 103 % of control under setting [5]; 101 % of control (endpoint: mean survival time, dose: 400.0 mg/kg/injection, schedule: Q01DX009 (ip), vehicle: saline); 103 % of control under setting [6].
On to `COc1ccc(NC2=NCCS2)cc1`, for which the T/C runs as follows: under setting [1], 94 % of control; under setting [2], 101 % of control.
As for `O=C(/C=C\c1ccc(O)c(O)c1)OC1C(O)CC(OC(=O)/C=C/c2ccc(O)c(O)c2)(C(=O)O)CC1O` (stereo not given), the T/C runs as follows: under setting [4], 98 % of control; under setting [5], 96 % of control; under setting [6], 95 % of control.
Regarding `Nc1nc2c(ncn2CCCCc2ccccc2)c(=O)[nH]1`, the T/C is 94 % of control (endpoint: mean survival time, dose: 100.0 mg/kg/injection, schedule: Q04DX002 (ip), vehicle: saline with Tween-80); 94 % of control (endpoint: mean survival time, dose: 200.0 mg/kg/injection, schedule: Q04DX002 (ip), vehicle: saline with Tween-80); 94 % of control (endpoint: mean survival time, dose: 400.0 mg/kg/injection, schedule: Q04DX002 (ip), vehicle: saline with Tween-80).
Turning to `Cc1ccc(CN(C)N=Nc2ccc(C(=O)O)cc2)cc1`, the T/C by setting is: (endpoint: mean survival time, dose: 25.0 mg/kg/injection, schedule: Q01DX009 (ip), vehicle: other) 91 % of control; (endpoint: mean survival time, dose: 50.0 mg/kg/injection, schedule: Q01DX009 (ip), vehicle: other) 87 % of control; under setting [7], 91 % of control; under setting [8], 87 % of control.
Take `COC(=O)c1cc(OC)cc(OC)c1`: the T/C was 96 % of control under setting [7]; 110 % of control under setting [8]; 91 % of control (endpoint: mean survival time, dose: 400.0 mg/kg/injection, schedule: Q01DX009 (ip), vehicle: other).
On to `O=c1[nH]c2c([N+](=O)[O-])cc(Br)cc2c2ccccc12`, for which the T/C (endpoint: mean survival time, dose: 100.0 mg/kg/injection, schedule: Q01DX001 (ip), vehicle: carboxymethylcellulose (CMC)) was 100 % of control; the T/C (endpoint: mean survival time, dose: 200.0 mg/kg/injection, schedule: Q01DX001 (ip), vehicle: carboxymethylcellulose (CMC)) was 94 % of control; the T/C (endpoint: mean survival time, dose: 400.0 mg/kg/injection, schedule: Q01DX001 (ip), vehicle: carboxymethylcellulose (CMC)) was 100 % of control.
Consider `Cc1cc(NC(=O)NC/C(Cl)=C/Cl)c2ccccc2n1`, for which the T/C is 93 % of control (endpoint: mean survival time, dose: 100.0 mg/kg/injection, schedule: Q01DX001 (ip), vehicle: saline with Tween-80); 93 % of control (endpoint: mean survival time, dose: 200.0 mg/kg/injection, schedule: Q01DX001 (ip), vehicle: saline with Tween-80); 98 % of control (endpoint: mean survival time, dose: 400.0 mg/kg/injection, schedule: Q01DX001 (ip), vehicle: saline with Tween-80).
For `O=c1[nH]c(=S)c(SCc2ccccc2)nn1C1OC(CO)C(O)C1O` (stereo not given), the T/C runs as follows: (endpoint: mean survival time, dose: 12.5 mg/kg/injection, schedule: Q01DX005 (ip), vehicle: distilled water + Tween-80) 95 % of control; (endpoint: mean survival time, dose: 25.0 mg/kg/injection, schedule: Q01DX005 (ip), vehicle: distilled water + Tween-80) 97 % of control; (endpoint: mean survival time, dose: 50.0 mg/kg/injection, schedule: Q01DX005 (ip), vehicle: distilled water + Tween-80) 100 % of control; (endpoint: mean survival time, dose: 100.0 mg/kg/injection, schedule: Q01DX005 (ip), vehicle: distilled water + Tween-80) 95 % of control; (endpoint: mean survival time, dose: 200.0 mg/kg/injection, schedule: Q01DX005 (ip), vehicle: distilled water + Tween-80) 94 % of control.
For the compound `CS(=O)(=O)Nc1ccc(Nc2c3ccccc3nc3cc(N)ccc23)cc1`, the T/C by setting is: (endpoint: mean survival time, dose: 1.5 mg/kg/injection, schedule: Q01DX001 (ip), vehicle: saline) 160 % of control; (endpoint: mean survival time, dose: 3.0 mg/kg/injection, schedule: Q01DX001 (ip), vehicle: saline) 162 % of control; (endpoint: mean survival time, dose: 3.0 mg/kg/injection, schedule: Q01DX009 (ip), vehicle: saline) 152 % of control; (endpoint: mean survival time, dose: 5.0 mg/kg/injection, schedule: Q01DX009 (ip), vehicle: saline) 114 % of control; (endpoint: mean survival time, dose: 12.0 mg/kg/injection, schedule: Q01DX001 (ip), vehicle: saline) 175 % of control.
